Test results from US4634700A, “1,3-dioxolanyl derivatives, a process for their preparation, their use and pharmaceutical preparations containing these compounds” (Ludwig Heumann & Co., GmbH, priority 1984, dated 1987).
In brackets after ≈: the same amount, converted by molar mass.

Legend:
Assay in all cases: Growth inhibition of yeast, IC 50% determination
Format in all cases: cell-based
[1] = system: Cryptococcus neoformans 2; conditions: Cryptococcus neoformans 2 (pathogen +)
From the text: (§1) One method of determining the microbiological activity of the compounds according to the invention on yeasts is the determination of the inhibitory concentration 50% (IC 50%).

[2] = system: Sacch. cerevisiae 2; conditions: Saccharomyces cerevisiae; Sacch. cerevisiae 2 (pathogen (+))
From the text: as §1

[3] = system: Cand. parapsilosis; conditions: Lodderomyces parapsilosis; Cand. parapsilosis (pathogen +)
From the text: as §1

[4] = system: Hansenula anomala; conditions: Hansenula anomala (pathogen -)
From the text: as §1

[5] = system: Sacch. rouxii; conditions: Sacch. rouxii (pathogen (+))
From the text: as §1

[6] = system: Cand. albicans; conditions: Candida albicans; Cand. albicans (pathogen +)
From the text: as §1

[7] = system: Cand. krusei; conditions: Pichia kudriavzevii; Cand. krusei (pathogen +)
From the text: as §1

[8] = system: Cand. pseudotropicalis; conditions: Kluyveromyces marxianus; Cand. pseudotropicalis (pathogen +)
From the text: as §1

[9] = system: Cand. curvata; conditions: Cand. curvata (pathogen +)
From the text: as §1

[10] = system: Rhodotorula spec.; conditions: Rhodotorula spec. (pathogen -)
From the text: as §1

[11] = system: Sacch. uvarum; conditions: Sacch. uvarum (pathogen (+))
From the text: as §1

[12] = system: Sacch. cerevisiae 1; conditions: Saccharomyces cerevisiae; Sacch. cerevisiae 1 (pathogen (+))
From the text: as §1

[13] = system: Cryptococcus neoformans 1; conditions: Cryptococcus neoformans 1 (pathogen +)
From the text: as §1

[14] = system: Metschnikowia pulch; conditions: Metschnikowia pulch (pathogen -)
From the text: as §1

[15] = system: Geotrichum capitum; conditions: Geotrichum capitum (pathogen +)
From the text: as §1

[16] = system: Sacch. fragilis; conditions: Sacch. fragilis (pathogen (+))
From the text: as §1

IC50 [1]: 0.125 µg/mL (≈ 0.213 µM)
IC50 [2]: 1.25 µg/mL (≈ 2.13 µM)
IC50 [3]: 0.0125 µg/mL (≈ 0.0213 µM)
IC50 [4]: 0.00125 µg/mL (≈ 0.00213 µM)
IC50 [5]: 0.00125 µg/mL (≈ 0.00213 µM)
IC50 [6]: 0.00125 µg/mL (≈ 0.00213 µM)
IC50 [7]: 0.125 µg/mL (≈ 0.213 µM)
IC50 [8]: 0.00125 µg/mL (≈ 0.00213 µM)
IC50 [9]: 0.125 µg/mL (≈ 0.213 µM)
IC50 [10]: 1.25 µg/mL (≈ 2.13 µM)
IC50 [11]: 1.25 µg/mL (≈ 2.13 µM)
IC50 [12]: 1.25 µg/mL (≈ 2.13 µM)
IC50 [13]: 0.0125 µg/mL (≈ 0.0213 µM)
IC50 [14]: 0.00125 µg/mL (≈ 0.00213 µM)
IC50 [15]: 0.125 µg/mL (≈ 0.213 µM)
IC50 [16]: 0.0125 µg/mL (≈ 0.0213 µM)
Structure (SMILES): CSC(=NC#N)N1CCN(c2ccc(OC[C@H]3CO[C@](Cn4ccnc4)(c4ccc(Cl)cc4Cl)O3)cc2)CC1 (relative stereo) [Example 2, cis-1-Cyanimino-methylthio-methylene-4-[4[[2-(2,4-dichlorophenyl)-2-(1H-imidazol-1-ylmethyl)-1,3-dioxolan-4-yl]-methoxy]-phenyl]-piperazine]
